{"source": "paper PMC13195121", "about": "“A plasmid toolbox for the easy autodisplay of recombinant proteins and its optimization” (Communications Biology, 2026)", "key": {"[1]": {"molecular_target": "T1, β-Gluc (β-glucosidase BglA LYTH) (Caldicellulosiruptor saccharolyticus, UniProt P10482)", "T1 construct": "His6 tag and fXa site", "T1 sequence (P10482 whole entry)": "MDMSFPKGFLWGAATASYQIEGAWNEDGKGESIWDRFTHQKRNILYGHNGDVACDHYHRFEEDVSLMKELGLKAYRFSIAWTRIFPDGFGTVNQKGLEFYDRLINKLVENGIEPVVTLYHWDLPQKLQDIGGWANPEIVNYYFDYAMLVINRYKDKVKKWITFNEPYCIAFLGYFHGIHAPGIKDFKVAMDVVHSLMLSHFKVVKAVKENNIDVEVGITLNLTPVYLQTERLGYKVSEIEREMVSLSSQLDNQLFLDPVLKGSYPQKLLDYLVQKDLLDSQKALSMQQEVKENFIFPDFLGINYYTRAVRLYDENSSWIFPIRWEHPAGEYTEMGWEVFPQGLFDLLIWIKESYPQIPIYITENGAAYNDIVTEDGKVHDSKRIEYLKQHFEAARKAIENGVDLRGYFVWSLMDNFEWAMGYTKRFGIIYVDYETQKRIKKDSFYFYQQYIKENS", "test": "whole-cell absorbance assay at […] nm, surface-displaying E. coli", "assay_type": "cell-based", "conditions": "5 mM pNPG; 0.1 M Na-citrate pH 6; 55 °C"}, "laccase CotA": {"molecular_target": "T2, laccase CotA (Heyndrickxia coagulans, UniProt A0AAN0WB15)", "T2 construct": "gene SB48_HM08orf01352; N-terminal His6 tag and fXa site; codon-optimized gene", "T2 sequence (A0AAN0WB15 1-522)": "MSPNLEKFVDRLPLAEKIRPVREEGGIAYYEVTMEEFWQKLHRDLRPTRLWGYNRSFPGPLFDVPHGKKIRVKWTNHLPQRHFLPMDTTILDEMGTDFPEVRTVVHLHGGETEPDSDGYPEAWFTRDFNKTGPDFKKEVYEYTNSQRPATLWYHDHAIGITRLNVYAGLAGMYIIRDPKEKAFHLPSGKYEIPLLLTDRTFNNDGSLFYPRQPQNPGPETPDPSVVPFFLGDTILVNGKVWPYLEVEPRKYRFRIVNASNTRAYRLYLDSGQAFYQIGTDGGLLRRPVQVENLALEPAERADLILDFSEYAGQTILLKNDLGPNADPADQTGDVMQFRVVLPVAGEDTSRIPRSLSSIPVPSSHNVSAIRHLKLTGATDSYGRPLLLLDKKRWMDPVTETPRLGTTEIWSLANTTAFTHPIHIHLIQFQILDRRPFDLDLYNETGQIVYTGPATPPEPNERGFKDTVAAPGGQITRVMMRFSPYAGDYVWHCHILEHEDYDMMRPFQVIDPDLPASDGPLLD", "test": "whole-cell absorbance assay at […] nm, surface-displaying P. putida", "assay_type": "cell-based", "conditions": "0.1 M Na-acetate pH 5.6; 30 °C; cells grown with CuCl2"}}, "note": "Counter-ions that a name gives are not always drawn.", "data": [{"smiles": "O=[N+]([O-])c1ccc(O[C@@H]2O[C@H](CO)[C@@H](O)[C@H](O)[C@H]2O)cc1", "note": "[4-nitrophenyl-β-D-glucopyranoside]", "values": [{"measurement": "whole-cell absorbance assay at 405 nm, surface-displaying E. coli", "setting": "[1]", "value": "activity assay with 4-nitrophenyl-β-D-glucopyranoside (pNPG) as substrate"}]}, {"smiles": "CCn1c(=NN=c2sc3cc(S(=O)(=O)O)ccc3n2CC)sc2cc(S(=O)(=O)O)ccc21", "note": "[ABTS, 2,2’-Azino-bis [3-ethylbenzothiazoline-6-sulfonic acid]-diammonium salt]", "values": [{"measurement": "whole-cell absorbance assay at 420 nm, surface-displaying P. putida", "setting": "laccase CotA", "value": "The substrate ABTS is converted by the laccase to ABTS^•+"}]}]}
